Patent US10858316B2, “Small molecule inhibitors of the MCL-1 oncoprotein and uses thereof” (University of Maryland, Baltimore, priority 2015, dated 2020)
Where two headings read alike, the source gives them in different places.

Assays:
Bcl-xL = Bcl-xL (Homo sapiens (Human), UniProt Q07817); assay: Fluorescence polarization competition assay, Bcl-xL; assay type: binding
Description: (§1) Fluorescence polarization experiments were conducted using a BMG PHERAstar FS multimode microplate reader equipped with two PMTs for simultaneous measurements of the perpendicular and parallel fluorescence emission. The assays were performed in black polypropylene 384-well microplate (Costar) with a final volume of 20 microliter. […] Regression analysis was carried out using Origin (OriginLab, Northampton, Mass.) to fit the data to the Hill equation (1) to determine the initial binding affinity (KD) and the IC50 in the FPCA. For the fluorescence polarization competition titrations, an equation derived by Nikolovska-Coleska et al. was used to calculate the Ki from the IC50 data.

Mcl-1 = Mcl-1 (Homo sapiens (Human), UniProt Q07820); assay: Fluorescence polarization competition assay (FPCA), Mcl-1 / FITC-Bak BH3 peptide; assay type: binding; details: for Mcl-1 Exp ΔG: ΔG=−RTlnKi from experimental Ki
Chain of Mcl-1 (Q07820 172-327): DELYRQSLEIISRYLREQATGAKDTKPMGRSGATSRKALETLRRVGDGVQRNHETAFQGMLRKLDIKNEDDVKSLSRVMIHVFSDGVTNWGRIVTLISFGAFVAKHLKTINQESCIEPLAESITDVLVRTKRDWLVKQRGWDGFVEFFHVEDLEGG
From the text: The tagged protein was initially purified from the crude cell lysate by immobilized metal affinity chromatography (IMAC) chromatography (GE Healthcare Life Sciences), and after dialysis to remove the imidazole the affinity tag was cleaved using PreScission Protease (GE Healthcare Life Sciences). A Sephacryl S-200 size exclusion column was used as a final purification step before the protein was concentrated with a 10,000 MWCO centifugal filter concentrator (Millipore).
as §1
The target molecules were assayed for their abilities to disrupt the Mcl-1-Bak-BH3 PPI in a fluorescence polarization competition (FPC) assay with Mcl-1 and FITC-labeled Bak-BH3 peptide. Further details on the FPC assay can be found in the Supporting Information.

[1] = Ki from IC50 by Nikolovska-Coleska equation, NA = no activity, read-out: Bcl-xL Ki
[2] = FPCA with FITC-Bak, Ki from IC50 by Nikolovska-Coleska equation, read-out: Mcl-1 Ki
[3] = fluorescence polarization competition assay, read-out: Ki (μM) Mcl-1

Chain of Bcl-xL (Q07817 whole entry): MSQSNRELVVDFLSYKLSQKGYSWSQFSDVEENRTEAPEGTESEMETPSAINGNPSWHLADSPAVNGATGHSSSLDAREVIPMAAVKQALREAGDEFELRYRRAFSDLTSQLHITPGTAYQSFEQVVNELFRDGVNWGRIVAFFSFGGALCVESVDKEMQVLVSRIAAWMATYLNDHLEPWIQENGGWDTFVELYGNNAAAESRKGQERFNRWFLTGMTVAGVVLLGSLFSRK

SMILES | Ki (Mcl-1; [2]) [µM] | also measured
CC(C)CN(c1ccc(C(=O)O)c(O)c1)S(=O)(=O)c1ccccc1 [4jc117-1 13aa] | 192 ± 37.5 | Ki (Bcl-xL; [1]): 154 ± 27.6 µM
Cc1cc(Oc2ccc(S(=O)(=O)N(Cc3ccccc3)c3ccc(O)c(C(=O)NS(=O)(=O)c4ccc(NCC5CCOCC5)c([N+](=O)[O-])c4)c3)cc2)cc(C)c1Cl [LC-5-132 33] | 1.01 ± 0.08 | Ki (Bcl-xL; [1]): 1.54 ± 0.226 µM
CC(C)CN(c1ccc(C(=O)O)c(O)c1)S(=O)(=O)c1ccc(-c2ccccc2)cc1 [4jc117-4 13ac] | 4.11 ± 0.245 | Ki (Bcl-xL; [1]): 10.8 ± 2.55 µM
CC(C)CN(c1ccc(O)c(C(=O)O)c1)S(=O)(=O)c1ccccc1 [JY-5-296 18ba] | 46.5 ± 9.82 | Ki (Bcl-xL; [1]): 49.3 ± 5.03 µM
CC(C)CN(c1ccc(O)c(C(=O)O)c1)S(=O)(=O)c1ccc2ccccc2c1 [jy-5-299 18bb] | 7.51 ± 0.84 | Ki (Bcl-xL; [1]): 44.6 ± 5.93 µM
Cc1cc(Oc2ccc(S(=O)(=O)N(CC(C)C)c3ccc(C(=O)O)c(O)c3)cc2)cc(C)c1Cl [Compound 4jc117-6] | – | Ki (Bcl-xL; fluorescence polarization competition assay, read-out: Ki (μM) Bcl-xL): 0.05 ± 0.01 µM; Ki (Mcl-1; [3]): 0.02 ± 0.012 µM
Cc1cc(CCCNc2ccc(C(=O)O)c(O)c2)cc(C)c1Cl [LC-5-184 36] | 15.2 ± 1.89 | Ki (Bcl-xL; [1]): 22.7 ± 4.08 µM
CC(C)Oc1ccc(NS(=O)(=O)c2cc(C(=O)O)c(O)c3ccccc23)cc1 [3aa; SF-5-293] | – | Mcl-1 Exp ΔG (Mcl-1): -5.82 kcal/mol
CC(C)CN(c1ccc(C(=O)O)c(O)c1)S(=O)(=O)c1ccc(F)cc1 [LC-5-025 13ad] | 99.4 ± 9.37 | –
Cc1cc(OCCCN2CC(C(=O)O)Cc3ccccc32)cc(C)c1Cl (racemic) [±-11] | 7.77 ± 1.39 | –
O=C(O)c1cc(S(=O)(=O)Nc2cccc(Br)c2)c2ccccc2c1O [Compound 3n, 4-(N-(3-Bromophenyl)sulfamoyl)-1-hydroxy-2-naphthoic Acid] | 5.64 ± 1.76 | –
Cc1cc(Oc2ccc(S(=O)(=O)N(c3ccc(C(=O)O)c(O)c3)C3CCCC3)cc2)cc(C)c1Cl [LC-4-104 13bc] | 1.76 ± 0.208 | Ki (Bcl-xL; [1]): 1.91 ± 0.117 µM
O=C(O)c1cc(S(=O)(=O)Nc2ccc(-c3ccccc3)cc2)c2ccccc2c1O [3t; LC-3-192] | – | Mcl-1 Exp ΔG (Mcl-1): -7.93 kcal/mol
O=C(O)c1ccc2c(c1)CCCN2S(=O)(=O)c1ccc2ccccc2c1 [LC-3-006, 1-(naphthalen-2-ylsulfonyl)-1,2,3,4-tetrahydroquinoline-6-carboxylic acid] | 22 | –
CC(C)CN(c1ccc(C(=O)O)c(O)c1)S(=O)(=O)c1ccc2ccccc2c1 [4jc117-3 13ab] | 13.8 ± 1.32 | Ki (Bcl-xL; [1]): 43.1 ± 14.7 µM
O=C(O)c1cc(S(=O)(=O)NCc2ccccc2Cl)c2ccccc2c1O [Compound 3d, 4-(N-(2-Chlorobenzyl)sulfamoyl)-1-hydroxy-2-naphthoic Acid] | 50.3 ± 11.8 | –
O=C(O)c1cc(S(=O)(=O)Nc2ccc(C(F)(F)F)cc2)c2ccccc2c1O [3w; 5JC73-1] | – | Mcl-1 Exp ΔG (Mcl-1): -7.64 kcal/mol
O=C(O)c1cc(S(=O)(=O)Nc2ccc(C(F)(F)F)cc2)c2ccccc2c1O [Compound 3w, 1-Hydroxy-4-(N-(4-(trifluoromethyl)phenyl)sulfamoyl)-2-naphthoic Acid] | 2.5 ± 0.65 | –
NS(=O)(=O)c1cc(C(=O)O)c(O)c2ccccc12 [3b; SF-5-294] | – | Mcl-1 Exp ΔG (Mcl-1): -5.46 kcal/mol
COC(=O)c1cc(S(=O)(=O)N(CC(C)C)c2ccc(Br)cc2)c2ccccc2c1O [Compound 3cb, Methyl 4-(N-(4-bromophenyl)-N-isobutylsulfamoyl)-1-hydroxy-2-naphthoate] | > 500 | Mcl-1 Exp ΔG (Mcl-1): >-4.50 kcal/mol
O=C(O)c1cc(S(=O)(=O)Nc2ccccc2Br)c2ccccc2c1O [Compound 3m, 4-(N-(2-bromophenyl)sulfamoyl)-1-hydroxy-2-naphthoic Acid] | 6.84 ± 2.23 | –
O=C(O)c1cc(S(=O)(=O)Nc2ccc(Oc3ccc(Cl)cc3)cc2)c2ccccc2c1O [Compound 3bh, 4-(N-(4-(4-Chlorophenoxy)phenyl)sulfamoyl)-1-hydroxy-2-naphthoic Acid] | 0.173 | –
CC(C)CN(c1ccc(C(=O)O)c(O)c1)S(=O)(=O)c1ccc(Br)cc1 [LC-5-012 13ae] | 17 ± 1.5 | –
O=C(O)C1CNc2ccccc2C1 (racemic) [±-6, 1,2,3,4-tetrahydroquinoline-3-carboxylic acid] | > 500 | Ki (Mcl-1; FPC assay, read-out: Mcl-1 Ki): > 500 µM
CC(C)CN(c1ccc(C(=O)O)cc1)S(=O)(=O)c1ccc(F)cc1 [LC-3-025 8d] | > 500 | –
CC(C)c1ccc(NS(=O)(=O)c2cc(C(=O)O)c(O)c3ccccc23)cc1 [Compound 3y, 1-Hydroxy-4-(N-(4-isopropylphenyl)sulfamoyl)-2-naphthoic Acid] | 3.86 ± 1.53 | –

SMILES | Ki (Mcl-1; [2]) [µM] | also measured
O=C(O)c1cc(S(=O)(=O)Nc2ccccc2-c2ccccc2)c2ccccc2c1O [Compound 3r, 4-(N-([1,1′-Biphenyl]-2-yl)sulfamoyl)-1-hydroxy-2-naphthoic Acid] | 8.5 ± 1.34 | –
O=C(O)c1cc(S(=O)(=O)NCc2cccc(Cl)c2)c2ccccc2c1O [Compound 3e, 4-(N-(3-Chlorobenzyl)sulfamoyl)-1-hydroxy-2-naphthoic Acid] | 5.03 ± 2.78 | –
CC(C)c1ccc(NS(=O)(=O)c2cc(C(=O)O)c(O)c3ccccc23)cc1 [3y; 5JC74-2] | – | Mcl-1 Exp ΔG (Mcl-1): -7.38 kcal/mol
CC(C)Oc1ccc(NS(=O)(=O)c2cc(C(=O)O)c(O)c3ccccc23)cc1 [Compound 3aa, 1-Hydroxy-4-(N-(4-isopropoxyphenyl)sulfamoyl)-2-naphthoic Acid] | 54 ± 4.6 | –
O=C(O)c1cc(S(=O)(=O)NCc2ccccc2)c2ccccc2c1O [3c; SF-5-311] | – | Mcl-1 Exp ΔG (Mcl-1): -5.79 kcal/mol
O=C(O)c1cc(S(=O)(=O)Nc2ccc(Oc3ccccc3)cc2)c2ccccc2c1O [Compound 3bb, 1-Hydroxy-4-(N-(4-phenoxyphenyl)sulfamoyl)-2-naphthoic Acid] | 1.15 ± 0.28 | –
O=C(O)c1cc(S(=O)(=O)Nc2cccc(Br)c2)c2ccccc2c1O [3n; TA-1-020] | – | Mcl-1 Exp ΔG (Mcl-1): -7.16 kcal/mol
O=C(O)c1cc(S(=O)(=O)Nc2ccccc2-c2ccccc2)c2ccccc2c1O [3r; LC-4-002] | – | Mcl-1 Exp ΔG (Mcl-1): -6.91 kcal/mol
O=C(O)c1cc(S(=O)(=O)NCc2ccccc2Cl)c2ccccc2c1O [3d; 5JC73-2] | – | Mcl-1 Exp ΔG (Mcl-1): -5.86 kcal/mol
O=C(O)C1Cc2ccccc2N(S(=O)(=O)c2ccc(Br)cc2)C1 (racemic) [±-8b] | 117 ± 19 | Ki (Mcl-1; FPC assay, read-out: Mcl-1 Ki): 117 µM
O=C(O)c1cc(S(=O)(=O)Nc2ccc(Oc3ccc(Cl)cc3)cc2)c2ccccc2c1O [3bh; SF-5-304] | – | Mcl-1 Exp ΔG (Mcl-1): -9.22 kcal/mol
CC(C)CN(c1cccc(C(=O)O)c1)S(=O)(=O)c1ccc(-c2ccccc2)cc1 [4jc177-4 18ac] | > 500 | –
O=C(O)c1ccc2c(c1)CCCN2S(=O)(=O)c1ccc(F)cc1 [LC-3-010, 1-((4-fluorophenyl)sulfonyl)-1,2,3,4-tetrahydroquinoline-6-carboxylic acid] | > 1000 | –
CC(C)CN(c1ccc(C(=O)O)c(O)c1)S(=O)(=O)c1ccc2ccccc2c1 [Compound 4jc117-3, 2-hydroxy-4-(N-isobutylnaphthalene-2-sulfonamido)benzoic acid] | – | Ki (Mcl-1; [3]): 60.3 ± 24.4 µM
CN(C)S(=O)(=O)c1cc(C(=O)O)c(O)c2ccccc12 [3h; SF-5-295] | – | Mcl-1 Exp ΔG (Mcl-1): -6.26 kcal/mol
CC(C)CN(c1ccc(-c2nnn[nH]2)cc1)S(=O)(=O)c1ccc(Oc2ccccc2)cc1 [LC-5-068 24] | 3.3 ± 0.26 | –
Cc1cc(Oc2ccc(S(=O)(=O)N3CC(C(=O)O)Cc4ccccc43)cc2)cc(C)c1Cl (racemic) [SF-5-141, (±)-1-((4-(4-chloro-3,5-dimethylphenoxy)phenyl)sulfonyl)-1,2,3,4-tetrahydroquinoline-3-carboxylic acid] | – | Ki (Mcl-1; read-out: Mcl-1 Ki): 0.286 µM
CC(C)CN(c1ccc(C(=O)NO)c(O)c1)S(=O)(=O)c1ccc(Oc2ccccc2)cc1 [LC-5-061 25] | 71 ± 5.8 | –
O=C(O)c1ccc(N(Cc2ccccc2)S(=O)(=O)c2ccc3ccccc3c2)cc1O [LC-4-113 13ca] | 11.4 ± 1.57 | –
O=C(O)c1ccc(N(C2CCCC2)S(=O)(=O)c2ccc(-c3ccccc3)cc2)cc1O [LC-4-082 13bb] | 5.24 ± 0.694 | –
O=C(O)C1Cc2ccccc2N(S(=O)(=O)c2ccc3ccccc3c2)C1 (racemic) [SF-5-134, (±)-1-(naphthalen-2-ylsulfonyl)-1,2,3,4-tetrahydroquinoline-3-carboxylic acid] | – | Ki (Mcl-1; read-out: Mcl-1 Ki): 30 µM
Cc1ccc(Oc2ccc(S(=O)(=O)N(CC(C)C)c3ccc(C(=O)O)c(O)c3)cc2)cc1 [LC-4-119 13ah] | 2.25 ± 0.168 | –
O=C(O)C1Cc2ccccc2N(S(=O)(=O)c2ccc(-c3ccccc3)cc2)C1 (racemic) [SF-5-133, (±)-1-([1,1′-biphenyl]-4-ylsulfonyl)-1,2,3,4-tetrahydroquinoline-3-carboxylic acid] | – | Ki (Mcl-1; read-out: Mcl-1 Ki): 12 µM
O=C(O)c1cc(S(=O)(=O)Nc2ccc(Cl)cc2)c2ccccc2c1O [3v; 5JC67] | – | Mcl-1 Exp ΔG (Mcl-1): -7.80 kcal/mol
O=C(O)c1cc(S(=O)(=O)Nc2ccc(-c3ccccc3)cc2)c2ccccc2c1O [Compound 3t, 4-(N-([1,1′-Biphenyl]-4-yl)sulfamoyl)-1-hydroxy-2-naphthoic Acid] | 1.54 ± 0.46 | –
Cc1ccc(S(=O)(=O)N(CC(C)C)c2ccc(C(=O)O)c(O)c2)cc1 [Compound 4jc117-2, 2-hydroxy-4-(N-isobutyl-4-methylphenylsulfonamido)benzoic acid] | – | Ki (Mcl-1; read-out: Mcl-1 Ki): 302 ± 31.8 µM
